pIC50: −log10 of the molar value. Values after ≈ are worked out from the molar mass of the structure shown. Where two headings read alike, the source gives them in different places.
Columns and labels:
[1] = Metabolic stability, mouse liver microsomes; assay type: in vitro ADME; details: CD-1 mouse liver microsomes 1 mg/ml, 1 mM NADPH, pH 7.4, 37° C.
Experimental: (§1) Test compounds were incubated with mouse liver microsomes (CD-1; male and female pooled; 1 mg/ml) or human liver microsomes (male; 1 mg/ml) in 50 mM potassium phosphate, pH 7.4, and 1 mM NADPH at 37° C. Aliquots were removed at 0, 15, 30, 60, 90 and 120 min, and amounts of test compounds remaining were determined by LC-MS/MS. Half lives (t0.5) were calculated as t0.5=−0.693/k, where k is the slope of the linear regression of the natural logarithms of percentages of test compounds remaining vs. time.

[2] = target: E. coli RNA polymerase σ70 holoenzyme (Escherichia coli, UniProt P0A8T7+P0A8V2); experiment: Fluorescence-detected inhibition of bacterial RNA polymerase; assay type: biochemical
Experimental: Fluorescence-detected RNA polymerase assays with E. coli RNA polymerase were performed by a modification of the procedure of Kuhlman et al., 2004 [Kuhlman, P., Duff, H. & Galant, A. (2004) A fluorescence-based assay for multisubunit DNA-dependent RNA polymerases. Anal. Biochem. 324, 183-190]. Reaction mixtures contained (20 μl): 0-100 nM test compound, 75 nM E. coli RNA polymerase σ^70holoenzyme, 20 nM 384 bp DNA fragment containing the bacteriophage T4 N25 promoter, 100 μM ATP, 100 μM GTP, 100 μM UTP, 100 μM CTP, 50 mM Tris-HCl, pH 8.0, 100 mM KCl, 10 mM MgCl2, 1 mM DTT, 10 μg/ml bovine serum albumin, and 5.5% glycerol. Reaction components other than DNA and NTPs were pre-incubated for 10 min at 37° C. Reactions were carried out by addition of DNA and incubation for 5 min at 37° C., followed by addition of NTPs and incubation for 60 min at 37° C. DNA was removed by addition of 1 μl 5 mM CaCl2 and 2 U DNaseI (Ambion, Inc.), followed by incubation for 90 min at 37° C. RNA was quantified by addition of 100 μl RiboGreen RNA Quantitation Reagent (Invitrogen, Inc.; 1:500 dilution in Tris-HCl, pH 8.0, 1 mM EDTA), followed by incubation for 10 min at 25° C., followed by measurement of fluorescence intensity [excitation wavelength=485 nm and emission wavelength=535 nm; QuantaMaster QM1 spectrofluorometer (PTI, Inc.)]. IC50 is defined as the concentration of inhibitor resulting in 50% inhibition of RNA polymerase activity.

[3] = Metabolic stability, human liver microsomes; assay type: in vitro ADME; details: human liver microsomes (male) 1 mg/ml, 1 mM NADPH, pH 7.4, 37° C.
Experimental: as §1

[4] = system: Staphylococcus aureus ATCC 12600; experiment: Inhibition of growth of Staphylococcus aureus (spiral gradient endpoint assay); assay type: cell-based; details: read-out: in vitro antibacterial activity S. aureus ATCC 12600 MIC
Source text: Minimum inhibitory concentrations (MICs) for Staphylococcus aureus ATCC 12600 were quantified using spiral gradient endpoint assays, essentially as described [Wallace, A. and Corkill, J. (1989) Application of the spiral plating method to study antimicrobial action. J. Microbiol. Meths. 10, 303-310; Paton, J., Holt, A., and Bywater, M. (1990) Measurement of MICs of antibacterial agents by spiral gradient endpoint compared with conventional dilution methods. Int. J. Exp. Clin. Chemother. 3, 31-38; Schalkowsky S. (1994) Measures of susceptibility from a spiral gradient of drug concentrations. Adv. Exp. Med. Biol. 349, 107-120]. Assays employed exponential-gradient plates containing 150 mm×4 mm Mueller-Hinton II cation-adjusted agar and 0.4-100 μg/ml of test compound. Plates were prepared using an Autoplate 4000 spiral plater (Spiral Biotech, Inc.). Saturated overnight cultures were swabbed radially onto plates, and plates were incubated for 16 h at 37° C. For each culture, the streak length was measured using a clear plastic template (Spiral Biotech, Inc.), the test-compound concentration at the streak endpoint was calculated using the program SGE (Spiral Biotech, Inc.), and the MIC was defined as the calculated test-compound concentration at the streak endpoint.

[5] = In vivo pharmacokinetics in mice (intravenous administration); details: CD-1 mice, 2.5 mg/kg
Experimental: Test compounds (2.5 mg/kg; 0.1 ml of 0.625 mg/ml solution in 5% dimethylacetamide and 4% Cremophor EL in 100 mM sodium phosphate, pH 7.4) were administered to mice (CD-1; […]; n=3) by intravenous injection into a tail vein at t=0 h. Blood samples were collected by tail-vein bleed (CB 300 K2E tubes; Sarstedt) at t=0.02, 0.05, 1, 3, 5, and 8 h, and plasma concentrations of test compounds were determined by LC-MS/MS.

[6] = system: Mycobacterium tuberculosis H37Rv; experiment: Inhibition of growth of Mycobacterium tuberculosis (microplate Alamar Blue assay); assay type: cell-based; details: read-out: in vitro antibacterial activity M. tuberculosis H37Rv MIC
[7] = 75 nM E. coli RNAP holoenzyme, RiboGreen fluorescence, read-out: in vitro RNAP-inhibitory activity E. coli RNAP IC50
[8] = ATCC12600, spiral gradient endpoint assay, 16 h at 37° C.

Sequence of E. coli RNA polymerase σ70 holoenzyme (P0A8V2 whole entry, the tested form may be a part): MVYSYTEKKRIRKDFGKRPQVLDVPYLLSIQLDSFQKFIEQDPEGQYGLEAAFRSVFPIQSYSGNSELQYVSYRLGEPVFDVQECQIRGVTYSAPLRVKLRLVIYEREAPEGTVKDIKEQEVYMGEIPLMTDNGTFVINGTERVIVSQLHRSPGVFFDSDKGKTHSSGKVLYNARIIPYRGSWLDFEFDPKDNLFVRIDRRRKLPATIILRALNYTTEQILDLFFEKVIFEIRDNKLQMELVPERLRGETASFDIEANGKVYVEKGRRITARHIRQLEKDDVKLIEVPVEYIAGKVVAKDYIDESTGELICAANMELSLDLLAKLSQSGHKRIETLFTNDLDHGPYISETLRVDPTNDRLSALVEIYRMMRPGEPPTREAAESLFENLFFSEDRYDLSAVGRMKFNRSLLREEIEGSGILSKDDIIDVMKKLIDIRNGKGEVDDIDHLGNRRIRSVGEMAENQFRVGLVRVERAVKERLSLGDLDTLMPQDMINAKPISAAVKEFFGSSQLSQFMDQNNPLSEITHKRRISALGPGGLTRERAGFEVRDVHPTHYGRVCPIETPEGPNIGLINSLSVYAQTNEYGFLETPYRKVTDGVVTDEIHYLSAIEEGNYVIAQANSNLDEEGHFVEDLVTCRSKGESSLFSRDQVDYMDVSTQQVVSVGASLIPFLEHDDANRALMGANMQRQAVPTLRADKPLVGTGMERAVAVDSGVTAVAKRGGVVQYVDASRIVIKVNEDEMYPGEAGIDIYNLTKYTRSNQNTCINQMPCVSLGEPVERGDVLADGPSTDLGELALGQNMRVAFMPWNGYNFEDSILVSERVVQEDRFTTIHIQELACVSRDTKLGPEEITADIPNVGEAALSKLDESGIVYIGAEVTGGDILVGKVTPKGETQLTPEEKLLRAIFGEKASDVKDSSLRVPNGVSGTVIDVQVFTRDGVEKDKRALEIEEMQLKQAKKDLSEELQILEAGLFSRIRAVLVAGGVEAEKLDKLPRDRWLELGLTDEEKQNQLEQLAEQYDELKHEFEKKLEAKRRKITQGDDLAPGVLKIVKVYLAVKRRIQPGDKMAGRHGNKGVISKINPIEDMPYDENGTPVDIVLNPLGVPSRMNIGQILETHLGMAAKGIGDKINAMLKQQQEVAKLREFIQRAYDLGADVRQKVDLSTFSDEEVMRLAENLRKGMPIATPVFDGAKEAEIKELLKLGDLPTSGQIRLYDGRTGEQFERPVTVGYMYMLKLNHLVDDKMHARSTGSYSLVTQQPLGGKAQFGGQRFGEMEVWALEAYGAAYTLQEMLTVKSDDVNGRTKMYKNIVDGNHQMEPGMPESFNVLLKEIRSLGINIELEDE
Sequence of E. coli RNA polymerase σ70 holoenzyme (P0A8T7 whole entry, the tested form may be a part): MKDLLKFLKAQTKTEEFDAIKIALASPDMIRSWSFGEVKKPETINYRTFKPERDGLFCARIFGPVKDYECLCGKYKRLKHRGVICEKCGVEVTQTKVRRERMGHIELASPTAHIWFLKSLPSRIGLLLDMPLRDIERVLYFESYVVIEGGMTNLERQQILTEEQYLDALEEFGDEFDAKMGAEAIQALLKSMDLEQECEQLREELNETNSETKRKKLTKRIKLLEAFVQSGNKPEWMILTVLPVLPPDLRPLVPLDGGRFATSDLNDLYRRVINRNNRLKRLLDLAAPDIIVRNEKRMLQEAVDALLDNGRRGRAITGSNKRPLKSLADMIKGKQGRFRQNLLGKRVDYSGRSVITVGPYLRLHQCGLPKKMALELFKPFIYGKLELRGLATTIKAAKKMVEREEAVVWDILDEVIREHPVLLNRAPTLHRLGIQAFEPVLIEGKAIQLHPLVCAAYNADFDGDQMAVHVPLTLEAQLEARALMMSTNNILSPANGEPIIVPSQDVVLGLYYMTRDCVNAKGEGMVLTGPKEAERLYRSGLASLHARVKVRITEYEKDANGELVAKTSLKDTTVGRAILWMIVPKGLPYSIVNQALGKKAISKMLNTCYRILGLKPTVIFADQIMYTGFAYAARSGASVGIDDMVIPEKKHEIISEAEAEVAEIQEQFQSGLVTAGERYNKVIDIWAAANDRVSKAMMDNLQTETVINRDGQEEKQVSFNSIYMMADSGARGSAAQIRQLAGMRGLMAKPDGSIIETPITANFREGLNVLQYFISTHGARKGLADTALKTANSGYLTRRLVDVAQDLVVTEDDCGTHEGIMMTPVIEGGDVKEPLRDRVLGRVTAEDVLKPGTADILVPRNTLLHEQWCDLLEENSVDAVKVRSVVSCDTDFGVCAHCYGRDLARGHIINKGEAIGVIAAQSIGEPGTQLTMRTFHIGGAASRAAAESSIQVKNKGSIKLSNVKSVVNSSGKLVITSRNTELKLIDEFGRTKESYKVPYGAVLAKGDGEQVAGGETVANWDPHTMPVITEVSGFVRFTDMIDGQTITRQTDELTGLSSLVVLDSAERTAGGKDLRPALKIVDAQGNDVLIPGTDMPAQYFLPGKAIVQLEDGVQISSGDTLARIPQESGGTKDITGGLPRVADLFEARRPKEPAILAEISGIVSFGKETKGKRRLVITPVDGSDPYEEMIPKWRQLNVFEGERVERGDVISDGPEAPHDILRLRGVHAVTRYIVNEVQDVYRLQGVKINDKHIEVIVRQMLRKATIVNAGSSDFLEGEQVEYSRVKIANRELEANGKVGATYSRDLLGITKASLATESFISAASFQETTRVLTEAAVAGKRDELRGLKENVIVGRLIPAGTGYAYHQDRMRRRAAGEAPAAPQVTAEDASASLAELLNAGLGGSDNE
Sequence of E. coli RNA polymerase σ70 holoenzyme (P0A7Z4 whole entry partner, the tested form may be a part): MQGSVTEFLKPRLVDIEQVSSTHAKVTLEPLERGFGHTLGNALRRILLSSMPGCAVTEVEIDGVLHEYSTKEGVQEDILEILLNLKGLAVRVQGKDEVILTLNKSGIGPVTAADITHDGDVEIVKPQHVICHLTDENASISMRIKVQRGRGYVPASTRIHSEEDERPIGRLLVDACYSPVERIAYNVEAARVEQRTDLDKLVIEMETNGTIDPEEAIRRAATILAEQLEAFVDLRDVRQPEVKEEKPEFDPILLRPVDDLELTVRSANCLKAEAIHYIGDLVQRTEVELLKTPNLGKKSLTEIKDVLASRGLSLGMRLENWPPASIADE
Sequence of E. coli RNA polymerase σ70 holoenzyme (P0A800 2-91 partner limits assumed): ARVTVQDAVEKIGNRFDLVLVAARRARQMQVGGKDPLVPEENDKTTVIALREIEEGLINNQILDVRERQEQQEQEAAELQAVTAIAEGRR
Sequence of E. coli RNA polymerase σ70 holoenzyme (P00579 whole entry partner, the tested form may be a part): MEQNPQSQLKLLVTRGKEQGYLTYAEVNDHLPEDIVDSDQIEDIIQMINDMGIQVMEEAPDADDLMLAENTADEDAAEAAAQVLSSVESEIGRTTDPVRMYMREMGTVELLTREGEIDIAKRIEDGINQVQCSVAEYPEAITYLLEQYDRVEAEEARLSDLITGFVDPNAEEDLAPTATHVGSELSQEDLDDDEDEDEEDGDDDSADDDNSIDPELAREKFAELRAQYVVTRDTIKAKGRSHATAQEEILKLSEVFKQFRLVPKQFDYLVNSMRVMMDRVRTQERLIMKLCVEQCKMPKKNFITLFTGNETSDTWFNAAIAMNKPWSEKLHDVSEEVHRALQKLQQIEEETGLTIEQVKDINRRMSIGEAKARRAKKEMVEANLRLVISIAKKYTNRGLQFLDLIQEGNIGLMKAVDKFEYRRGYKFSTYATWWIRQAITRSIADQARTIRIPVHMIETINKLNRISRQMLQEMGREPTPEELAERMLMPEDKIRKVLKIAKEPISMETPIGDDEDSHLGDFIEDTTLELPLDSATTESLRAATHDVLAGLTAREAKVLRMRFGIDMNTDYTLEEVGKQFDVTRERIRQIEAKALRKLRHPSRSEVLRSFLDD

| SMILES | mouse liver microsome t0.5 [1] | pIC50 [2, 7] | human liver microsome t0.5 [3] | MIC [4, 8] | plasma t0.5 [5] | MIC [6] | MIC ([4]; ATCC12600, 16 h) | pIC50 [2] |
| --- | --- | --- | --- | --- | --- | --- | --- | --- |
| CCCC/C(C)=C/C=C(\C)C(=O)c1c(O)cc(C(C)CC/C=C/NC(=O)OC)oc1=O (racemic) [Example 10, (±)Myxopyronin B, reference compound] | 21 min | 7.89 | 1.7 min |  |  |  |  |  |
| COC(=O)N/C=C/CCC(C)c1cc(O)c(C(=O)/C(C)=C/c2sc(Oc3ccc(F)cc3)nc2C)c(=O)o1 (centres unmarked) [Example 1] | 21 min | 8.25 | 8.3 min | 0.35 µg/mL (≈ 0.645 µM) | 2.7 h | 3.12 µg/mL (≈ 5.76 µM) |  |  |
| COC(=O)N/C=C/CCC(C)c1cc(O)c(C(=O)/C(C)=C/c2cnc(Oc3ccc(F)cc3)s2)c(=O)o1 (centres unmarked) [Example 2] | 60 min | 8.02 | 14 min | 0.5 µg/mL (≈ 0.946 µM) | 2.8 h | 3.12 µg/mL (≈ 5.91 µM) |  |  |
| COC(=O)N/C=C/CCCc1cc(O)c(C(=O)/C(C)=C/c2sc(Oc3ccc(F)cc3)nc2C)c(=O)o1 [Example 3] | 110 min | 8.35 | 5.6 min | 0.17 µg/mL (≈ 0.322 µM) | 2.5 h | 1.56 µg/mL (≈ 2.95 µM) |  |  |
| [2H]C([2H])([2H])OC(=O)N/C=C/CCC(C)c1cc(O)c(C(=O)/C(C)=C/c2sc(Oc3ccc(F)cc3)nc2C)c(=O)o1 (centres unmarked) [Example 4] | 59 min | 8.17 | 16 min | 0.24 µg/mL (≈ 0.44 µM) | 2.7 h |  |  |  |
| [2H]C([2H])([2H])OC(=O)N/C=C/CCC(C)c1cc(O)c(C(=O)/C(C)=C/c2cnc(Oc3ccc(F)cc3)s2)c(=O)o1 (centres unmarked) [Example 5] | >120 min | 8.28 | 21 min | 0.3 µg/mL (≈ 0.564 µM) | 3.0 h | 1.56 µg/mL (≈ 2.93 µM) |  |  |
| COC(=O)N/C=C/CCCc1cc(O)c(C(=O)/C(C)=C/c2cnc(Oc3ccc(F)cc3)s2)c(=O)o1 [Example 6] | >120 min | 8.08 | 8.6 min | 0.73 µg/mL (≈ 1.42 µM) | 2.4 h | 0.78 µg/mL (≈ 1.52 µM) |  |  |
| [2H]C([2H])([2H])OC(=O)N/C=C/CCCc1cc(O)c(C(=O)/C(C)=C/c2sc(Oc3ccc(F)cc3)nc2C)c(=O)o1 [Example 7] | >120 min | 8.70 | 8.3 min | 0.19 µg/mL (≈ 0.357 µM) | 2.6 h | 0.78 µg/mL (≈ 1.47 µM) |  |  |
| [2H]C([2H])([2H])OC(=O)N/C=C/CCCc1cc(O)c(C(=O)/C(C)=C/c2cnc(Oc3ccc(F)cc3)s2)c(=O)o1 [Example 8] | >120 min | 8.52 | 21 min | 0.25 µg/mL (≈ 0.483 µM) | 2.7 h | 0.78 µg/mL (≈ 1.51 µM) |  |  |
| [2H]C([2H])([2H])OC(=O)N/C=C/CCCc1cc([O-])c(C(=O)/C(C)=C/c2cnc(Oc3ccc(F)cc3)s2)c(=O)o1.[Na+] [Example 9] | >120 min |  | 29 min |  | 3.9 h | 0.39 µg/mL | 0.41 µg/mL | 8.52 |
| COC(=O)N/C=C/CCC(C)c1cc(O)c(C(=O)/C(C)=C/C=C(\C)CCC(F)(F)F)c(=O)o1 (centres unmarked) [Example 11, reference compound] | 100 min | 7.92 | 25 min |  |  |  |  |  |
| [2H]C([2H])([2H])OC(=O)N/C=C/CCC(C)c1cc(O)c(C(=O)/C(C)=C/C=C(\C)CCCC)c(=O)o1 (centres unmarked) [Example 12] | 66 min |  | 4.2 min |  |  |  |  |  |
| [2H]C([2H])([2H])OC(=O)N/C=C/CCC(C)c1cc(O)c(C(=O)/C(C)=C/C=C(\C)CCC(F)(F)F)c(=O)o1 (centres unmarked) [Example 13] | >120 min | 7.64 | 33 min |  |  |  |  |  |
| [2H]C([2H])([2H])OC(=O)N/C=C/CCCc1cc([O-])c(C(=O)/C(C)=C/c2cnc(Oc3ccc(F)c(Cl)c3)s2)c(=O)o1.[Na+] [Example 15] |  |  |  |  |  | 0.78 µg/mL | 0.17 µg/mL | 8.54 |
| [2H]C([2H])([2H])OC(=O)N/C=C/CCCc1cc(O)c(C(=O)/C(C)=C/c2cnc(Oc3ccc(-c4ccccc4)cc3)s2)c(=O)o1 [Example 16] | 46 min | 7.74 | 44 min | > 8 µg/mL |  | > 50 µg/mL |  |  |
| [2H]C([2H])([2H])OC(=O)N/C=C/CCCc1cc([O-])c(C(=O)/C(C)=C/c2cnc(Oc3ccc(-c4ccccc4)cc3)s2)c(=O)o1.[Na+] [Example 17] |  |  |  |  |  | > 50 µg/mL |  | 7.31 |
| [2H]C([2H])([2H])OC(=O)N/C=C/CCCc1cc(O)c(C(=O)/C(C)=C/c2cnc(Oc3ccc(F)c(Br)c3)s2)c(=O)o1 [Example 18] |  | 8.80 |  | 0.35 µg/mL (≈ 0.587 µM) |  | 0.78 µg/mL (≈ 1.31 µM) |  |  |
| [2H]C([2H])([2H])OC(=O)N/C=C/CCCc1cc(O)c(C(=O)/C(C)=C/c2cnc(Oc3ccc(F)c(-c4ccccc4)c3)s2)c(=O)o1 [Example 19] |  | 8.92 |  | 0.93 µg/mL (≈ 1.57 µM) |  | 25 µg/mL (≈ 42.1 µM) |  |  |
| [2H]C([2H])([2H])OC(=O)N/C=C/CCCc1cc(O)c(C(=O)/C(C)=C/c2cnc(Oc3ccc(F)c(F)c3)s2)c(=O)o1 [Example 20] |  | 8.52 |  | 0.26 µg/mL (≈ 0.485 µM) |  | 0.78 µg/mL (≈ 1.46 µM) |  |  |

From patent US11685723B2, “Antibacterial agents: O-alkyl-deuterated pyronins” (Rutgers, the State University of New Jersey, priority 2018, dated 2023)
